Measured values published in US20030118990A1, “Novel estrogen-regulated G protein gamma subunit: compositions and methods of use” (Schering Aktiengesellschaft, priority 2000, published 2003).

Test system: mGγ12 mRNA
Assay: Northern blot analysis of mGγ12 mRNA in liver of estrogen-treated mice
Assay type: in vivo, mouse
Conditions: liver RNA; normal male mice treated with estrogen vs ERKO male mice treated with estrogen and un-treated male mice; effect via estrogen receptor alpha, not beta
Experimental: Expressed sequence tags (EST) that represent messenger RNA (mRNA) molecules that are more abundant in the liver of normal male mice treated with estrogen than in the liver of estrogen receptor alpha knockout (ERKO) male mice also treated with estrogen were obtained by subtraction cloning. The DNA sequence of complementary DNA (cDNA) clones representing the full-length mRNA molecules corresponding to one of the above mentioned EST's was obtained.
Northern blot analysis was conducted with RNA prepared from the livers of normal male mice treated with estrogen, ERKO male mice treated with estrogen, and un-treated male mice using a hybridization probe derived from the mGγ12 cDNA.

Question: Which “transcription of the mGγ12 gene in the liver” value does the source give for estrogen here?
Answer: activated
